{
  "source": "patent US20190038640A1",
  "about": "“COMPOSITION, FORMULATIONS AND METHODS OF MAKING AND USING BOTANICALS AND NATURAL COMPOUNDS FOR THE PROMOTION OF HEALTHY BRAIN AGING” (THE BRAIN HEALTH PROJECT, LLC, priority 2013, published 2019)",
  "origin": "cited, not measured here",
  "key": {"endometrium": {"system": "endometrium", "conditions": "genistein aglycone 54 mg"}, "[1]": {"conditions": "0.1-0.2 mg HupA twice daily, active group"}, "[2]": {"conditions": "in vivo"}, "beta amyloid": {"system": "beta amyloid", "conditions": "AD transgenic mice"}, "[3]": {"system": "alkaline phosphatase activity in the endometrium"}},
  "data": [
    {"smiles": "O=c1c(-c2ccc(O)cc2)coc2cc(O)cc(O)c12", "note": "[Genistein, genistein]", "values": [
      {"measurement": "reduction of endometrial hyperplasia without atypia compared with norethisterone acetate", "setting": "endometrium", "value": "as successful as"}
    ]},
    {"smiles": "C/C=C1\\[C@H]2C=C(C)C[C@]1(N)c1ccc(=O)[nH]c1C2", "note": "[Huperzine A]", "values": [
      {"measurement": "proportion of patients with a four point improvement on the ADAS-Cog", "setting": "[1]", "value": 56, "unit": "%"},
      {"measurement": "terminal half life", "setting": "0.2 mg pure Huperzine A orally, healthy subjects", "value": "approximately 6 hours"},
      {"measurement": "optimal plasma level", "setting": "human, in vivo", "value": 0.6, "unit": "ng/mL"}
    ]},
    {"smiles": "Cn1c(=O)c2c(ncn2C)n(C)c1=O", "note": "[caffeine]", "values": [
      {"measurement": "half life", "setting": "[2]", "value": "4 to 6", "unit": "h"},
      {"measurement": "time to peak blood levels", "setting": "[2]", "value": "within one hour"},
      {"measurement": "reduction of beta amyloid deposition in the entorhinal cortex", "setting": "beta amyloid", "value": 46, "unit": "%"},
      {"measurement": "reduction of beta amyloid deposition in the hippocampus", "setting": "beta amyloid", "value": 40, "unit": "%"}
    ]},
    {"smiles": "O=c1c(-c2ccc(O)cc2)coc2cc(O)ccc12", "note": "[daidzein]", "values": [
      {"measurement": "potency of inducing alkaline phosphatase activity relative to estradiol", "setting": "[3]", "value": "one millionth"}
    ]}
  ]
}
